With `O=C(CN1CCC2(CC1)OCCO2)Nc1nc(-c2ccco2)c(C(=O)C2CCOCC2)s1` [Compound 554, 2-(1,4-Dioxa-8-azaspiro[4.5]decan-8-yl)-N-[4-(2-furyl)-5-(tetrahydropyran-4-ylcarbonyl)thiazol-2-yl]acetamide], the melting point lay in the range of 186 to 187 °C.
The result for `CN1CCN(CC(=O)Nc2nc(-c3ccco3)c(C(=O)C3CCOCC3)s2)CC1` [Compound 562, N-[4-(2-Furyl)-5-(tetrahydropyran-4-ylcarbonyl)thiazol-2-yl]-2-(4-methylpiperazin-1-yl)acetamide] reads 106 to 112 °C; that for `CC(C)(O)CN1CCN(CC(=O)Nc2nc(-c3ccco3)c(C(=O)C3CCOCC3)s2)CC1` [Compound 565, N-[4-(2-Furyl)-5-(tetrahydropyran-4-ylcarbonyl)thiazol-2-yl]-2-[4-(2-hydroxy-2-methylpropyl)piperazin-1-yl]acetamide], 106 to 108 °C.
Molecule `COC1(CN2CCN(CC(=O)Nc3nc(-c4ccco4)c(C(=O)C4CCOCC4)s3)CC2)CC1` [Compound 567, N-[4-(2-Furyl)-5-(tetrahydropyran-4-ylcarbonyl)thiazol-2-yl]-2-{4-[(1-methoxycyclopropyl)methyl]piperazin-1-yl}acetamide] came in with a melting point of 155 to 157 °C.
The same measure for `CN1CCCN(CC(=O)Nc2nc(-c3ccco3)c(C(=O)C3CCOCC3)s2)CC1` [Compound 576, N-[4-(2-Furyl)-5-(tetrahydropyran-4-ylcarbonyl)thiazol-2-yl]-2-(4-methyl-1,4-diazepan-1-yl)acetamide]: 94 to 96 °C.
The same measure for `O=C(CNC12CC3CC(CC(C3)C1)C2)Nc1nc(-c2ccco2)c(C(=O)C2CCOCC2)s1` [Compound 577, N-[4-(2-Furyl)-5-(tetrahydropyran-4-ylcarbonyl)thiazol-2-yl]-2-(adamantan-1-ylamino)acetamide]: 168 to 170 °C; for `O=C(CNC12CC3CC(CC(O)(C3)C1)C2)Nc1nc(-c2ccco2)c(C(=O)C2CCOCC2)s1` [Compound 578, N-[4-(2-Furyl)-5-(tetrahydropyran-4-ylcarbonyl)thiazol-2-yl]-2-(3-hydroxyadamantan-1-ylamino)acetamide]: 176 to 178 °C.
`CCOC(=O)Nc1nc(-c2ccco2)c(C(=O)C2CCOCC2)s1` [Compound 581, Ethyl N-[4-(2-furyl)-5-(tetrahydropyran-4-ylcarbonyl)thiazol-2-yl]carbamate] registered a melting point of 152 to 153 °C.
The same measure for `O=C(Nc1nc(-c2ccco2)c(C(=O)C2CCSCC2)s1)c1ccncc1` [Compound 589, N-[4-(2-Furyl)-5-(tetrahydrothiopyran-4-ylcarbonyl)thiazol-2-yl]pyridine-4-carboxamide]: 203 to 210 °C.
Consider `Cc1ccc(-c2nc(NC(=O)c3ccncc3)sc2-c2ccncc2)o1` [Compound 601, N-[4-(5-Methylfuran-2-yl)-5-(4-pyridyl)thiazol-2-yl]pyridine-4-carboxamide], for which the melting point was in the range of 274 to 276 °C.
The result for `Cc1ccoc1-c1nc(NC(=O)c2ccncc2)sc1-c1ccncc1` [Compound 602, N-[4-(3-Methylfuran-2-yl)-5-(4-pyridyl)thiazol-2-yl]pyridine-4-carboxamide] reads 254 to 257 °C; that for `O=C(Nc1nc(-c2occc2-c2ccccc2)c(-c2ccncc2)s1)c1ccncc1` [Compound 603, N-[4-(3-Phenylfuran-2-yl)-5-(4-pyridyl)thiazol-2-yl]pyridine-4-carboxamide], 190 to 192 °C; that for `O=C(Nc1nc(-c2ccoc2)c(-c2ccncc2)s1)c1ccncc1` [Compound 605, N-[4-(3-Furyl)-5-(4-pyridyl)thiazol-2-yl]pyridine-4-carboxamide], 251 to 254 °C.
The result for `O=C(Nc1nc(-c2ccoc2)c(C(=O)c2ccccn2)s1)c1ccncc1` [Compound 608, N-[4-(3-Furyl)-5-(pyridin-2-ylcarbonyl)thiazol-2-yl]pyridine-4-carboxamide] reads 264 to 266 °C; that for `O=C(Nc1nc(-c2ccoc2)c(C(=O)C2CCOCC2)s1)C1CC1` [Compound 611, N-[4-(3-Furyl)-5-(tetrahydropyran-4-ylcarbonyl)thiazol-2-yl]cyclopropanecarboxamide], 231 to 232 °C.
`O=C(Nc1nc(-c2ccoc2)c(C(=O)C2CCOCC2)s1)c1ccc(Cl)nc1` [Compound 612, 2-Chloro-N-[4-(3-furyl)-5-(tetrahydropyran-4-ylcarbonyl)thiazol-2-yl]pyridine-5-carboxamide] registered a melting point of 237 to 239 °C.
The result for `Cc1cncc(C(=O)Nc2nc(-c3ccoc3)c(C(=O)C3CCOCC3)s2)c1` [Compound 613, N-[4-(3-Furyl)-5-(tetrahydropyran-4-ylcarbonyl)thiazol-2-yl]-5-methylpyridine-3-carboxamide] reads 244 to 246 °C; that for `Cc1ccc(C(=O)Nc2nc(-c3ccoc3)c(C(=O)C3CCOCC3)s2)cn1` [Compound 614, N-[4-(3-Furyl)-5-(tetrahydropyran-4-ylcarbonyl)thiazol-2-yl]-2-methylpyridine-5-carboxamide], 217 to 219 °C.
The same measure for `Cc1cc(C(=O)Nc2nc(-c3ccoc3)c(C(=O)C3CCOCC3)s2)ccn1` [Compound 615, N-[4-(3-Furyl)-5-(tetrahydropyran-4-ylcarbonyl)thiazol-2-yl]-2-methylpyridine-4-carboxamide]: 202 to 204 °C; for `O=C(Nc1nc(-c2ccoc2)c(C(=O)C2CCOCC2)s1)c1ccnc(Cl)c1` [Compound 616, 2-Chloro-N-[4-(3-furyl)-5-(tetrahydropyran-4-ylcarbonyl)thiazol-2-yl]pyridine-4-carboxamide]: 202 to 204 °C; for `O=C(Cc1cccnc1)Nc1nc(-c2ccoc2)c(C(=O)C2CCOCC2)s1` [Compound 618, N-[4-(3-Furyl)-5-(tetrahydropyran-4-ylcarbonyl)thiazol-2-yl]-2-(3-pyridyl)acetamide]: 195 to 197 °C.
The result for `COc1cccc(C(=O)Nc2nc(-c3ccoc3)c(C(=O)C3CCOCC3)s2)c1` [Compound 619, N-[4-(3-Furyl)-5-(tetrahydropyran-4-ylcarbonyl)thiazol-2-yl]-3-methoxybenzamide] reads 194 to 196 °C.
`O=C(Nc1nc(-c2ccoc2)c(C(=O)C2CCOCC2)s1)c1ccc(F)cc1` [Compound 620, 4-Fluoro-N-[4-(3-furyl)-5-(tetrahydropyran-4-ylcarbonyl)thiazol-2-yl]benzamide] yielded a melting point of 231 to 232 °C.
The same measure for `O=C(Nc1nc(-c2ccccn2)c(C(=O)c2ccccn2)s1)c1ccncc1` [Compound 631, N-[4-(2-Pyridyl)-5-(pyridin-2-ylcarbonyl)thiazol-2-yl]pyridine-4-carboxamide]: 232 to 234 °C; for `O=C(Nc1nc(-c2ccccc2)c(C(=O)c2ccccn2)s1)c1ccncc1` [Compound 634, N-[4-Phenyl-5-(pyridin-2-ylcarbonyl)thiazol-2-yl]pyridine-4-carboxamide]: 231 to 235 °C.

For the origin of these results see patent US7718808B2, “Thiazole derivatives” (Kyowa Hakko Kirin Co., Ltd., priority 2003, dated 2010).
